From US8435994B2, “Substituted [1,2,4]triazolo[4,3-alpha]quinoxalines as adenosine A2a receptor antagonists” (Merck Sharp & Dohme Corp., priority 2009, dated 2013)
Like-named read-outs stand apart in the source and are kept apart here.

Biological target: T1, Human A2a Adenosine Receptor (Homo sapiens, UniProt P29274)
T1 construct: purchased Receptor Biology, Inc., Beltsville, Md; RB-HA2a
Test: Human Adenosine A2a Receptor Competition Binding Assay ([3H]-SCH 58261 displacement)
Procedure: Human Adenosine A2a Receptor Competition Binding Assay Protocol
A2a: Human A2a Adenosine Receptor membranes, Catalog #RB-HA2a, Receptor Biology, Inc., Beltsville, Md. Dilute to 17 μg/100 μl in membrane dilution buffer (see below).
Membrane dilution buffer: Dulbecco's Phosphate Buffered Saline (Gibco/BRL)+ 10 mM MgCl2.
Compound Dilution Buffer: Dulbecco's Phosphate Buffered Saline (Gibco/BRL)+10 mM MgCl2 supplemented with 1.6 mg/ml methyl cellulose and 16% DMSO. Prepared fresh daily.
A2a: [3H]-SCH 58261 [7-(2-phenylethyl)-5-amino-2-(2-furyl)-pyrazolo-[4,3-e]-1,2,4-triazolo[1,5-c]pyrimidine], custom synthesis, Amersham Pharmacia Biotech, Piscataway, N.J. Stock is prepared at 1 nM in membrane dilution buffer. Final assay concentration is 0.5 nM. SCH-58261 is discussed in Zocchi et al., J Pharmacol Exp Ther. 276(2):398-404 (1996).
A2a: To determine non-specific binding, add 100 nM CGS 15923 (RBI, Natick, Mass.). Working stock is prepared at 400 nM in compound dilution buffer.
Prepare 1 mM stock solutions of compounds in 100% DMSO. Dilute in compound dilution buffer. Test at 10 concentrations ranging from 3 μM to 30 μM. Prepare working solutions at 4× final concentration in compound dilution buffer.
Perform assays in deep well 96 well plates. Total assay volume is 200 μl. Add 50 μl compound dilution buffer (total ligand binding) or 50 μl […] working solution (A2a non-specific binding) or 50 μl of drug working solution.

[1] = Table I, human A2a membranes, [3H]-SCH 58261 0.5 nM, Cheng-Prusoff, read-out: Activity (Ki)
[2] = Table II, human A2a membranes, [3H]-SCH 58261 0.5 nM, Cheng-Prusoff, read-out: Activity (Ki in nM)
[3] = assay of Example 25, read-out: Ki value for the adenosine A2a receptor

T1 sequence (P29274 whole entry): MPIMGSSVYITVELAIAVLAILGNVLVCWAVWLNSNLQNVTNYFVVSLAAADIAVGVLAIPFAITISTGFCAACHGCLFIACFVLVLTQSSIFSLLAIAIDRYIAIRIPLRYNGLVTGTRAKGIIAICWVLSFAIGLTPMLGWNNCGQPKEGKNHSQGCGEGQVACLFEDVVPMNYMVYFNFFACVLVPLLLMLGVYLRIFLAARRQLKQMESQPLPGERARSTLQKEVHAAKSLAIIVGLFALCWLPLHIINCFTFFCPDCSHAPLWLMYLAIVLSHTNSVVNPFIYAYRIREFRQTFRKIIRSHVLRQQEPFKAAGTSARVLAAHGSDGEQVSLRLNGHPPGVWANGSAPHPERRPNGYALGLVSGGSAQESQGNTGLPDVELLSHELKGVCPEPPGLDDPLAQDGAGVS

Row | Ki [1] [nM] | Compound | further results
1 | 0.4 | Nc1nc2cc(F)c(F)cc2n2c(=O)n(Cc3c(F)cccc3F)nc12 [Compound 1] | –
2 | 0.7 | Nc1nc2ccccc2n2c(=O)n(Cc3ccccc3)nc12 [Compound 2] | –
3 | 0.6 | Cc1cccc2c1nc(N)c1nn(Cc3ccccc3)c(=O)n12 [Compound 3] | –
4 | 0.7 | Nc1ccccc1Cn1nc2c(N)nc3ccccc3n2c1=O [Compound 5] | –
5 | 0.9 | Nc1nc2ccc(F)cc2n2c(=O)n(Cc3ccccc3)nc12 [Compound 6] | –
6 | 0.7 | Nc1nc2ccc(F)cc2n2c(=O)n(Cc3c(F)cccc3F)nc12 [Compound 7] | –
7 | 1 | Nc1nc2ccccc2n2c(=O)n(Cc3cccc(F)c3F)nc12 [Compound 8] | –
8 | 1 | Nc1nc2ccccc2n2c(=O)n(Cc3c(F)cccc3F)nc12 [Compound 9] | –
9 | 1 | Nc1nc2ccc(F)cc2n2c(=O)n(Cc3ccc(F)cc3)nc12 [Compound 10] | –
10 | 1.2 | Nc1nc2ccccc2n2c(=O)n(Cc3ccccc3CO)nc12 [Compound 11] | –
11 | 1 | Nc1nc2ccc(F)cc2n2c(=O)n(Cc3c(F)cc(F)cc3F)nc12 [Compound 12] | –
12 | 1.4 | Nc1nc2ccccc2n2c(=O)n(Cc3c(F)cc(F)cc3F)nc12 [Compound 13] | –
13 | 1.2 | N#Cc1ccccc1Cn1nc2c(N)nc3ccccc3n2c1=O [Compound 14] | –
14 | 1.4 | Nc1nc2cc([N+](=O)[O-])ccc2n2c(=O)n(Cc3ccccc3)nc12 [Compound 15] | –
15 | 1.4 | Nc1nc2cc(Cl)c(Cl)cc2n2c(=O)n(Cc3ccccc3)nc12 [Compound 16] | –
16 | 1.4 | Nc1nc2cc(F)c(F)cc2n2c(=O)n(Cc3ccccc3)nc12 [Compound 17] | –
17 | 1.9 | Nc1nc2ccccc2n2c(=O)n(Cc3ccc(F)cc3)nc12 [Compound 18] | –
18 | 1.7 | COC(=O)c1ccc2c(c1)nc(N)c1nn(Cc3ccccc3)c(=O)n12 [Compound 19] | –
19 | 1.8 | Nc1nc2cc(C(F)(F)F)ccc2n2c(=O)n(Cc3c(F)cccc3F)nc12 [Compound 20] | –
20 | 1.8 | Nc1nc2ccccc2n2c(=O)n(Cc3ccccc3C(F)(F)F)nc12 [Compound 21] | –

Row | Ki [1] [nM] | Compound | further results
21 | 2.2 | Nc1nc2ccc(F)cc2n2c(=O)n(Cc3c(F)cccc3C(F)(F)F)nc12 [Compound 22] | –
22 | 2 | CC(C)(O)c1ccccc1Cn1nc2c(N)nc3ccccc3n2c1=O [Compound 23] | –
23 | 2.8 | Nc1nc2cc(F)c(F)cc2n2c(=O)n(Cc3c(F)cc(F)cc3F)nc12 [Compound 24] | –
24 | 2.6 | Nc1nc2cc(C=O)ccc2n2c(=O)n(Cc3ccccc3)nc12 [Compound 25] | –
25 | 1.9 | COC(=O)c1ccccc1Cn1nc2c(N)nc3ccccc3n2c1=O [Compound 26] | –
26 | 2.5 | Nc1nc2ccccc2n2c(=O)n(Cc3c(F)cccc3C(F)(F)F)nc12 [Compound 27] | –
27 | 2.7 | Nc1nc2ccc(Cl)cc2n2c(=O)n(Cc3ccccc3)nc12 [Compound 28] | –
28 | 3.2 | Nc1nc2ccccc2n2c(=O)n(Cc3ccccc3[N+](=O)[O-])nc12 [Compound 29] | –
29 | 3.2 | Nc1nc2ccccc2n2c(=O)n(Cc3c(Cl)cccc3Cl)nc12 [Compound 30] | –
30 | 3 | CC(=O)c1ccc2c(c1)nc(N)c1nn(Cc3ccccc3)c(=O)n12 [Compound 31] | –
31 | 4.7 | N#C/N=c1\n(Cc2ccccc2)nc2c(N)nc3ccccc3n12 [Compound 32] | –
32 | 5.6 | Nc1ccc2c(c1)nc(N)c1nn(Cc3ccccc3)c(=O)n12 [Compound 33] | –
33 | 6 | N=c1n(Cc2ccccc2)nc2c(N)nc3ccccc3n12 [Compound 35] | –
34 | 7.1 | Cc1cccc2nc(N)c3nn(Cc4ccccc4)c(=O)n3c12 [Compound 36] | –
35 | 7.4 | Nc1nc2ccccc2n2c(=O)n(Cc3cc(F)cc(F)c3)nc12 [Compound 37] | –
36 | 7.4 | CC(=O)Nc1ccccc1Cn1nc2c(N)nc3ccccc3n2c1=O [Compound 38] | –
37 | 8.2 | CN(C)/C=N\c1ccccc1Cn1nc2c(N)nc3ccccc3n2c1=O [Compound 39] | –
38 | 8.6 | Nc1nc2cc(CO)ccc2n2c(=O)n(Cc3ccccc3)nc12 [Compound 40] | –
39 | 8.3 | CS(=O)(=O)c1ccccc1Cn1nc2c(N)nc3ccccc3n2c1=O [Compound 41] | –
40 | 10.2 | Nc1nc2ccc(C(F)(F)F)cc2n2c(=O)n(Cc3c(F)cccc3F)nc12 [Compound 42] | –

Row | Ki [1] [nM] | Compound | further results
41 | 12.1 | COc1ccc2nc(N)c3nn(Cc4ccccc4)c(=O)n3c2c1 [Compound 43] | –
42 | 14 | COc1cccc(OC)c1Cn1nc2c(N)nc3ccccc3n2c1=O [Compound 44] | –
43 | 29.2 | Nc1nc2ccccc2n2c(=O)n(CCc3ccccc3)nc12 [Compound 45] | –
44 | 28.9 | CCCCNc1nc2ccc(F)cc2n2c(=O)n(Cc3ccccc3)nc12 [Compound 46] | –
45 | 32.3 | Nc1nc2ccccc2n2c(=O)n(CC3CC3)nc12 [Compound 47] | –
46 | 28.9 | CN(C)C(=O)c1ccccc1Cn1nc2c(N)nc3ccccc3n2c1=O [Compound 48] | –
47 | 38.4 | Nc1nc2cc(CO)ccc2n2c(=O)n(Cc3ccccc3F)nc12 [Compound 49] | –
48 | 46.3 | Nc1nc2cccnc2n2c(=O)n(Cc3ccccc3)nc12 [Compound 50] | –
49 | 51.5 | COc1ccc2nc(N)c3nn(Cc4ccccc4C(F)(F)F)c(=O)n3c2c1 [Compound 51] | –
50 | 54.9 | CC(O)c1ccc2c(c1)nc(N)c1nn(Cc3ccccc3)c(=O)n12 (stereo not drawn) [Compound 52] | –
51 | 60 | Nc1nc2ccc(CO)cc2n2c(=O)n(Cc3ccccc3)nc12 [Compound 53] | –
52 | 66.4 | Nc1nc2ccccc2n2c(=O)n(Cc3ccccc3C(=O)N3CCOCC3)nc12 [Compound 54] | –
53 | 70.8 | COC(=O)c1ccc2nc(N)c3nn(Cc4ccccc4)c(=O)n3c2c1 [Compound 55] | –
54 | 91.1 | CC(c1ccccc1)n1nc2c(N)nc3ccccc3n2c1=O (stereo not drawn) [Compound 56] | –
55 | – | Nc1nc2ccccc2n2cc(Cc3ccccc3)nc12 [Compound 57] | Ki [2]: 4.1 nM
56 | – | Nc1nc2ccccc2n2cc(-c3ccccc3)nc12 [Compound 58] | Ki [2]: 57 nM
57 | – | Nc1nc2ccccc2n2cc(C(=O)c3ccccc3)nc12 [Compound 59] | Ki [2]: 42 nM
58 | – | Nc1nc2ccccc2n2cc(C(O)c3ccccc3)nc12 (stereo not drawn) [Compound 60] | Ki [2]: 29 nM
59 | – | Nc1nc2ccccc2n2nc(Cc3ccccc3)nc12 [Compound 61] | Ki [3]: 0.7 nM
60 | – | Nc1nc2ccccc2c2nc(Cc3ccccc3)cn12 [Compound 62] | Ki [3]: 0.7 nM
